Here are results for one compound from patent publication US20140031325A1, “COMBINATION THERAPY WITH LENALIDOMIDE AND A CDK INHIBITOR FOR TREATING MULTIPLE MYELOMA” (Celgene Corporation, priority 2010, published 2014).

In data set [1] the test system is newly diagnosed multiple myeloma. Kind of data set: Combination therapy of lenalidomide and dexamethasone in patients with newly diagnosed multiple myeloma. Type of data set: in vivo. The source says:
Most adverse events were manageable with dose modification. The combination therapy is an effective first-line therapy for the treatment of patients with newly diagnosed multiple myeloma.

Data set [2] relates to multiple myeloma. Nature of the data set: Combination therapy of lenalidomide and CDK4/CDK6 inhibitor (PD 0332991) in patients with multiple myeloma. Type of data set: in vivo. How it is done: Lenalidomide and a CDK4/CDK6 inhibitor control tumor expansion and enhance tumor killing in the treatment of multiple myeloma. Patients with multiple myeloma are treated with lenalidomide (Revlimid®, 5 to 25 mg/day orally on days 1-21 in a 28 days cycle) and a CDK4/CDK6 inhibitor (PD 0332991, 25 to 150 mg/day orally on days 1-21 in a 28 days cycle). Maintenance treatment are continued until the disease progression.

[3] abbreviates: lenalidomide in combination with dexamethasone, newly diagnosed multiple myeloma.

As for `Nc1cccc2c1CN(C1CCC(=O)NC1=O)C2=O` (stereo not drawn) [lenalidomide, 3-(4-amino-1-oxo-1,3-dihydro-isoindol-2-yl)-piperidine-2,6-dione], in data set [1] (setting [3]), the “overall response rate and complete response” value was “high overall response rate and complete response”; the “progression-free survival at 1 year” value is given as “significantly increased progression-free survival at 1 year”; the tolerability result is “well tolerated”. Moreover, the patient response result in data set [1] (newly diagnosed multiple myeloma patients, lenalidomide 25 mg/day days 1-21 of 28-day cycle in combination with dexamethasone 40 mg/day (days 1-4, 9-12, 17-20 or days 1, 8, 15, 22)) is recorded as “most of patients responded”. Besides, the “activity of the therapy in multiple myeloma patients” value in data set [2] (Revlimid 5 to 25 mg/day orally days 1-21 of 28-day cycle in combination with PD 0332991 25 to 150 mg/day orally days 1-21) was “highly active”. Further, the tolerability result in data set [2] (Revlimid 5 to 25 mg/day orally in combination with PD 0332991 25 to 150 mg/day orally, multiple myeloma patients) was “well tolerated”.
